Values after ≈ are worked out from the molar mass of the structure shown.
How the values were obtained:
Format in all cases: cell-based
[1] = system: Candida albican ATCC 62342; test: In vitro antifungal activity (MIC80), Candida albican ATCC 62342; conditions: Candida, ATCC62342; Table 2, 62342; read-out: Minimal inhibitory concentration (MIC80)
Experimental: (§1) In vitro antifungal activities of the inventive antifungal compounds were evaluated using test strains including Candida albican (ATCC 90873, 204276, 62342, 64124, 64550, 96901, MYA-573, MYA-574, MYA-575, MYA-576, MYA-1003) and Aspergillus fumigatus (ATCC 16424). Test samples and positive control samples were prepared by dissolving the inventive compounds and comparative compounds, i.e., amphotericin B, fluconazole and itraconazole, in DMSO, respectively, and each successively diluted with medium to obtain test and positive control solutions having test compound concentrations of 0.125 μg/ml to a maximum concentration not generating turbidity. Minimal inhibitory concentration (MIC80) of each compound was determined as the lowest concentration of the test compounds required to reduce growth by 80% relative to a control strain not treated.
(§2) 1) Test strain: Candida albican ATCC 90873, 204276, 62342, 64124, 64550, 96901, MYA-573, MYA-574, MYA-575, MYA-576, MYA-1003, and Aspergillus fumigatus ATCC 16424 were commercially obtained from The American Type Culture Collection (ATCC) and subcultured in CHEMON Co. Ltd. (amphotericin B was commercially purchased from Sigma, and fluconazole and itraconazole were prepared according to methods described in British Patent No. 2,099,818; and U.S. Pat. No. 4,267,179, respectively).
(§3) 2) Medium and culture condition: Candida albican was cultured in Sabourad Dextrose Agar, YM Agar or Potato Dextrose Agar according to ATCC information at a temperature of 37° C., 35° C., 30° C. or 25° C. Aspergillus fumigatus was cultured in Malt Extract Agar or Potato Dextrose Agar at a temperature ranging from 24 to 27° C.
(§4) 3) Preparation of test samples: the inventive compounds and comparative compounds were each diluted with DMSO to obtain 1 to 2 ml of a test sample in a concentration of 100-folds of the determining maximum concentration (256 μg/ml).
(§5) The test samples were each successively diluted with RPMI 1640 to obtain test solutions having concentrations of […] in a 12×75 mm sterilized disposable culture tube. The final concentration of DMSO was adjusted to […] (v/v).
(§6) 5) Preparation of strain solution and inoculation
(§7) Candida albican strains were each subcultured in Sabourad Dextrose Agar, YM Agar or Potato Dextrose Agar medium at 35° C. for 2˜3 days. In the case of yeasts, a single colony was taken from prominent colonies and suspended in 0.85% sterile physiological saline solution and the turbidity of the suspension was adjusted to 80˜82% at 530 nm, and then diluted 50-fold with RPMI 1640 medium to 1.0×10^3˜5.0×10^3 CFU/ml. The turbidity of fungi was adjusted to 80˜82% and the suspension was diluted 50-fold to […]. Aspergillus fumigatus strains were subcultured in Malt Extract Agar for 7˜10 days, and a single colony was taken from prominent colonies and suspended in 0.85% sterile physiological saline solution and the suspension was adjusted to 0.108 at 530 nm, and then diluted 1000-fold with RPMI 1640 medium to 0.4×10^2˜5×10^4 CFU/ml. The turbidity of fungi was adjusted to 80˜82% and the suspension was diluted 50-fold to 0.4102˜0.5104 CFU/ml.
(§8) The strain solutions thus obtained were each seeded into a sterilized 96-well microplate, 0.1 ml of each test solution were added thereto, and […] of alamarblue was treated to each well (Biosource, #DAL1100). This procedure was repeated 2 times.
(§9) Minimal inhibitory concentration (MIC80) of each compound was determined as the lowest concentration of the test compounds required to reduce growth by 80% relative to a control strain not treated.

[2] = system: Candida albican ATCC MYA-573; test: In vitro antifungal activity (MIC80), Candida albican ATCC MYA-573; conditions: Candida; Table 2, MYA 573; read-out: Minimal inhibitory concentration (MIC80)
Experimental: as §1, §2, §3, §4, §5, §6, §7, §8, §9

[3] = system: Candida albican ATCC MYA-574; test: In vitro antifungal activity (MIC80), Candida albican ATCC MYA-574; conditions: Candida; Table 2, MYA 574; read-out: Minimal inhibitory concentration (MIC80)
Experimental: as §1, §2, §3, §4, §5, §6, §7, §8, §9

[4] = system: Candida albican ATCC MYA-575; test: In vitro antifungal activity (MIC80), Candida albican ATCC MYA-575; conditions: Candida; Table 2, MYA 575; read-out: Minimal inhibitory concentration (MIC80)
Experimental: as §1, §2, §3, §4, §5, §6, §7, §8, §9

[5] = system: Candida albican ATCC MYA-1003; test: In vitro antifungal activity (MIC80), Candida albican ATCC MYA-1003; conditions: Candida; Table 2, MYA 1003; read-out: Minimal inhibitory concentration (MIC80)
Experimental: as §1, §2, §3, §4, §5, §6, §7, §8, §9

[6] = system: Candida albican ATCC MYA-576; test: In vitro antifungal activity (MIC80), Candida albican ATCC MYA-576; conditions: Candida; Table 2, MYA 576; read-out: Minimal inhibitory concentration (MIC80)
Experimental: as §1, §2, §3, §4, §5, §6, §7, §8, §9

[7] = system: Candida albican ATCC 96901; test: In vitro antifungal activity (MIC80), Candida albican ATCC 96901; conditions: Candida, ATCC96901; Table 2, ATCC 96901; read-out: Minimal inhibitory concentration (MIC80)
Experimental: as §1, §2, §3, §4, §5, §6, §7, §8, §9

[8] = system: Candida albican ATCC 64124; test: In vitro antifungal activity (MIC80), Candida albican ATCC 64124; conditions: Candida, ATCC64124; Table 2, 64124; read-out: Minimal inhibitory concentration (MIC80)
Experimental: as §1, §2, §3, §4, §5, §6, §7, §8, §9

[9] = system: Candida albican ATCC 90873; test: In vitro antifungal activity (MIC80), Candida albican ATCC 90873; conditions: Candida, ATCC90873; Table 2, ATCC 90873; read-out: Minimal inhibitory concentration (MIC80)
Experimental: as §1, §2, §3, §4, §5, §6, §7, §8, §9

[10] = system: Candida albican ATCC 64550; test: In vitro antifungal activity (MIC80), Candida albican ATCC 64550; conditions: Candida, ATCC64550; Table 2, 64550; read-out: Minimal inhibitory concentration (MIC80)
Experimental: as §1, §2, §3, §4, §5, §6, §7, §8, §9

SMILES | MIC80 [1] [µg/mL] | MIC80 [2] [µg/mL] | MIC80 [3] [µg/mL] | MIC80 [4] [µg/mL] | MIC80 [5] [µg/mL] | MIC80 [6] [µg/mL] | MIC80 [7] [µg/mL] | MIC80 [8] [µg/mL] | MIC80 [9] [µg/mL] | MIC80 [10] [µg/mL]
C[C@@H](N1CCN(c2cccc(OCc3ccccc3)n2)CC1)[C@](O)(Cn1cncn1)c1ccc(F)cc1F [Example 20, (2R,3R)-3-(4-(6-(benzyloxy)pyridin-2-yl)piperazin-1-yl)-2-(2,4-difluorophenyl)-1-(1H-1,2,4-triazol-1-yl)butan-2-ol] | 1 (≈ 1.92 µM) | 0.5 (≈ 0.96 µM) | 1 (≈ 1.92 µM) | 0.25 (≈ 0.48 µM) | > 128 | 0.25 (≈ 0.48 µM) | 2 (≈ 3.84 µM) | 8 (≈ 15.4 µM) | 0.125 (≈ 0.24 µM) | 1 (≈ 1.92 µM)
CCCCOc1ccc(N2CCN([C@H](C)[C@](O)(Cn3cncn3)c3ccc(F)cc3F)CC2)cn1 [Example 32, (2R,3R)-3-(4-(6-(butyloxy)pyridin-3-yl)piperazin-1-yl)-2-(2,4-difluorophenyl)-1-(1H-1,2,4-triazol-1-yl)butan-2-ol] | 1 (≈ 2.06 µM) | 1 (≈ 2.06 µM) | 4 (≈ 8.22 µM) | 0.5 (≈ 1.03 µM) | > 128 | 0.125 (≈ 0.257 µM) | 8 (≈ 16.4 µM) | 4 (≈ 8.22 µM) | 0.125 (≈ 0.257 µM) | 1 (≈ 2.06 µM)
C[C@@H](N1CCN(c2nc3ccc(N4CCCCC4)cc3s2)CC1)[C@](O)(Cn1cncn1)c1ccc(F)cc1F [Example 10, (2R,3R)-2-(2,4-difluorophenyl)-3-(4-(6-(piperidin-1-yl)benzothiazol-2-yl)piperazin-1-yl)-1-(1H-1,2,4-triazol-1-yl)butan-2-ol] | 0.125 (≈ 0.226 µM) | 0.5 (≈ 0.903 µM) | 0.5 (≈ 0.903 µM) | 0.125 (≈ 0.226 µM) | > 128 | 0.125 (≈ 0.226 µM) | 4 (≈ 7.22 µM) | 4 (≈ 7.22 µM) | 0.125 (≈ 0.226 µM) | 0.5 (≈ 0.903 µM)
C[C@@H](N1CCN(c2cccc(OCCN3CCOCC3)n2)CC1)[C@](O)(Cn1cncn1)c1ccc(F)cc1F [Example 26, (2R,3R)-2-(2,4-difluorophenyl)-3-(4-(6-(2-morpholinoethoxy)pyridin-2-yl)piperazin-1-yl)-1-(1H-1,2,4-triazol-1-yl)butan-2-ol] | 4 (≈ 7.36 µM) | 8 (≈ 14.7 µM) | 16 (≈ 29.4 µM) | 0.5 (≈ 0.92 µM) | > 128 | 0.5 (≈ 0.92 µM) | > 128 | > 128 | 0.25 (≈ 0.46 µM) | 8 (≈ 14.7 µM)
C[C@@H](N1CCCN(c2ccc3ccccc3n2)CC1)[C@](O)(Cn1cncn1)c1ccc(F)cc1F [Example 40, (2R,3R)-2-(2,4-difluorophenyl)-3-(4-(quinolin-2-yl)-1,4-diazepan-1-yl)-1-(1H-1,2,4-triazol-1-yl)butan-2-ol] | 0.25 (≈ 0.522 µM) | 0.5 (≈ 1.04 µM) | 2 (≈ 4.18 µM) | 0.125 (≈ 0.261 µM) | > 128 | 0.125 (≈ 0.261 µM) | 16 (≈ 33.4 µM) | 8 (≈ 16.7 µM) | 0.125 (≈ 0.261 µM) | 2 (≈ 4.18 µM)
C[C@@H](N1CCN(c2ccc(OCCN3CCOCC3)nc2)CC1)[C@](O)(Cn1cncn1)c1ccc(F)cc1F [Example 34, (2R,3R)-2-(2,4-difluorophenyl)-3-(4-(6-(2-morpholinoethoxy)pyridin-3-yl)piperazin-1-yl)-1-(1H-1,2,4-triazol-1-yl)butan-2-ol] | 0.5 (≈ 0.92 µM) | 2 (≈ 3.68 µM) | 2 (≈ 3.68 µM) | 0.125 (≈ 0.23 µM) | 128 (≈ 235 µM) | 0.125 (≈ 0.23 µM) | 32 (≈ 58.9 µM) | 32 (≈ 58.9 µM) | 0.125 (≈ 0.23 µM) | 2 (≈ 3.68 µM)

From US20100144712A1 (priority 2007, published 2010)
